The source of these data is patent publication US8993544B2, “Carbamoylphosphonates as inhibitors and uses thereof” (priority 2009, dated 2015).

In assay [1] the target is T1, MMP-2 (Homo sapiens, UniProt P08253).
T1 sequence (P08253 110-660): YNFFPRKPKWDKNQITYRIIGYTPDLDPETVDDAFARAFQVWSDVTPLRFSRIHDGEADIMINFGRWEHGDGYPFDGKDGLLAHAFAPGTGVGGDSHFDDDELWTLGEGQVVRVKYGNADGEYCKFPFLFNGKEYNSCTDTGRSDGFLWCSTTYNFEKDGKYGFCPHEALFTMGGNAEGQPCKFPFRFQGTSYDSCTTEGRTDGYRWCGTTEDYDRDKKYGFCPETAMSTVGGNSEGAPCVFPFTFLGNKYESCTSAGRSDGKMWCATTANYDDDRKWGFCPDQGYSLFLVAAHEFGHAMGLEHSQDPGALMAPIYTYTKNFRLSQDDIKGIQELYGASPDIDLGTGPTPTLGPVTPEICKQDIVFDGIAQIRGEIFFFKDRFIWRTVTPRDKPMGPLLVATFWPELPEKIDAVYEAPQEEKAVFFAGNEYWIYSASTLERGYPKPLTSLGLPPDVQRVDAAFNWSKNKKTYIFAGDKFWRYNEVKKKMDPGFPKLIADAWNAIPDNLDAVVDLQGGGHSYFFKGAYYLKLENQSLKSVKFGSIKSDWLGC
The assay can be described thus: Determination of MMP inhibitory potency, MMP-2. The assay is classed as biochemical. Set-up: purchased R&D Systems, Minneapolis. Particulars: read-out: IC50 (μM) on MMP-2. The protocol: (§1) Recombinant enzymes, human MMP-1, MMP-2, MMP-3, MMP-8, MMP-9, MMP-12, MMP-13 and TACE (R&D Systems, Minneapolis) were incubated at four different concentrations with the relevant colorimetric or fluorescent peptide substrates (R&D Systems, Minneapolis) for 3 h. The tested compounds were added at four to six different concentrations and the inhibitory potencies expressed in a colorimetric change, was measured by an ELISA or fluorimeter.

The target of assay [2] is T2, human MMP-3 (Homo sapiens, UniProt P08254).
T2 construct: purchased R&D Systems, Minneapolis
Nature of the assay: Determination of MMP inhibitory potency, MMP-3. It counts as biochemical. The protocol:
as §1

The target of assay [3] is T3, human MMP-12 (Homo sapiens, UniProt P39900).
T3 construct: purchased R&D Systems, Minneapolis
Nature of the assay: Determination of MMP inhibitory potency, MMP-12. The assay is classed as biochemical. The settings on record: read-out: IC50 (μM) on MMP-12. How it is done: as §1

For assay [4], the target named is T4, human MMP-9 (Homo sapiens, UniProt P14780).
T4 construct: purchased R&D Systems, Minneapolis
Nature of the assay: Determination of MMP inhibitory potency, MMP-9. It counts as biochemical. The protocol: as §1

Assay [5] has as its target T5, human MMP-13 (Homo sapiens, UniProt P45452).
T5 construct: purchased R&D Systems, Minneapolis
The assay can be described thus: Determination of MMP inhibitory potency, MMP-13. It counts as biochemical. Particulars: read-out: IC50 (μM) on MMP-13. How it is done:
as §1

Assay [6] relates to tumor invasion. The assay can be described thus: In vitro model of tumor invasion (Boyden chamber, reconstituted basement membrane). It counts as cell-based. The settings on record: read-out: % Invasion-Inhibition by 50 μM drug. The protocol:
The compound was also evaluated in an in vivo experimental model of metastasis using B16F10 tumor cells in C57B1 mice. […] The assay was carried out in a Boyden chamber with a reconstituted basement membrane (Matrigal).

Assay [7] has as its target T6, human MMP-8 (Homo sapiens, UniProt P22894).
T6 construct: purchased R&D Systems, Minneapolis
Nature of the assay: Determination of MMP inhibitory potency, MMP-8. The assay is classed as biochemical. How it is done:
as §1

Assay [8] relates to B16F10 tumor cells. Nature of the assay: Murine melanoma model of experimental metastasis. The assay is classed as in vivo, C57B1 mice. Particulars: B16F10 tumor cells in C57B1 mice.
Procedure: Experimental metastasis was studied in the murine melanoma model. In this model, B16F10 tumor cells (50 k) were injected into the tail vein of C57B1 6 week old female mice. After 21 days, the metastases formed on the lungs of the mice were counted after appropriate fixation. […] One group received the inhibitor intraperitoneally and the other group orally, dissolved in PBS. Mice were monitored for toxic symptoms at alternate days.
Assay [9] concerns MMP and/or ADAM enzyme. Nature of the assay: Duration of inhibitory effect on the enzymes inhibited. The assay is classed as biochemical, human. How it is done:
Previously, it has been established that cis-2-aminocyclohexycarbamoyl phosphonic acid (cis-ACCP), listed for the purpose of comparison in Tables 2 and 3 as “control”, was an effective nontoxic, in vivo active antimetastatic compound. […] In the study leading to the subject invention, it was determined that the inhibitory effect could be, and in fact was prolonged by substituting carbamoylphosphonic functionality with aromatic ring functionality as in the compounds of the invention. […]
as §1

Assay [10] deals with T7, TACE (Homo sapiens, UniProt P78536).
T7 construct: purchased R&D Systems, Minneapolis
The assay can be described thus: Determination of inhibitory potency, TACE. The assay is classed as biochemical. How it is done: as §1

Assay [11] deals with T1, MMP-2. The assay can be described thus: Time dependent inhibition of MMP-2 (period of inhibition). The assay is classed as biochemical.

T6 sequence (P22894 101-467): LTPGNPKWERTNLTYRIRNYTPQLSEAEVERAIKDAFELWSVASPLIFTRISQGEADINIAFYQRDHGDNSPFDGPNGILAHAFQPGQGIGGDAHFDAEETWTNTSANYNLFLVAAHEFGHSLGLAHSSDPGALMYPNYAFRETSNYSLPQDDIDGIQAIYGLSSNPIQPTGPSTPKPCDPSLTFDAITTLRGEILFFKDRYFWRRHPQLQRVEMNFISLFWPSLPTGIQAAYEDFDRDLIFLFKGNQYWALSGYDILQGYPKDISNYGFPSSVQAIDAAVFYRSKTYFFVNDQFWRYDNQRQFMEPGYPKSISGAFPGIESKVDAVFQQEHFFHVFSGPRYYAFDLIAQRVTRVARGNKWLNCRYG
T2 sequence (P08254 100-477): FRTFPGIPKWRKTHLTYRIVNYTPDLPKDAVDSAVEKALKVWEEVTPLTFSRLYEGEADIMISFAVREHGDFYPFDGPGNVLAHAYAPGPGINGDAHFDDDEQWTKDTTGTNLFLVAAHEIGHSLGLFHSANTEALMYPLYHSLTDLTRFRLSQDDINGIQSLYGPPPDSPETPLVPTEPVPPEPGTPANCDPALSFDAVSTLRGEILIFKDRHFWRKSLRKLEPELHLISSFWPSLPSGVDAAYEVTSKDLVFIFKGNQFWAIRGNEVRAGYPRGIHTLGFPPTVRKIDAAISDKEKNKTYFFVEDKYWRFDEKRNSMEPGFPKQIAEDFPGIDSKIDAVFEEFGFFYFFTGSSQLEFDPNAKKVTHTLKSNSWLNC
T4 sequence (P14780 94-707): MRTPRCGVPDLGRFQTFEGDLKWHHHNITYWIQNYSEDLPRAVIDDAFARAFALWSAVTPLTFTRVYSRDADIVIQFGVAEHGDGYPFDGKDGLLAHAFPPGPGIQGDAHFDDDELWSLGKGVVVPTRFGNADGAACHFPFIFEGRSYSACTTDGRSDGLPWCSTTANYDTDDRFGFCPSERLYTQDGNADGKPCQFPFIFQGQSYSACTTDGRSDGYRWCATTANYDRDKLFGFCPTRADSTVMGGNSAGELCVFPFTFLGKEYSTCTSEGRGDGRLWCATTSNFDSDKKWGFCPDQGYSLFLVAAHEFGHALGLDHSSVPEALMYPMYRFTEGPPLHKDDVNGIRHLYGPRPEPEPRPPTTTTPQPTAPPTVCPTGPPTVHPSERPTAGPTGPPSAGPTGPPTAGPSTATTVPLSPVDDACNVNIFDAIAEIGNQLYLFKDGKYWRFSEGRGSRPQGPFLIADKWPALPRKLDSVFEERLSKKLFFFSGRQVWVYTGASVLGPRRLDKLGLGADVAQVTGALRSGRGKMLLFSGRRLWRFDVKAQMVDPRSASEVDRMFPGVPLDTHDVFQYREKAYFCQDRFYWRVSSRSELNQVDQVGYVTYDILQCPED
T7 sequence (P78536 215-824): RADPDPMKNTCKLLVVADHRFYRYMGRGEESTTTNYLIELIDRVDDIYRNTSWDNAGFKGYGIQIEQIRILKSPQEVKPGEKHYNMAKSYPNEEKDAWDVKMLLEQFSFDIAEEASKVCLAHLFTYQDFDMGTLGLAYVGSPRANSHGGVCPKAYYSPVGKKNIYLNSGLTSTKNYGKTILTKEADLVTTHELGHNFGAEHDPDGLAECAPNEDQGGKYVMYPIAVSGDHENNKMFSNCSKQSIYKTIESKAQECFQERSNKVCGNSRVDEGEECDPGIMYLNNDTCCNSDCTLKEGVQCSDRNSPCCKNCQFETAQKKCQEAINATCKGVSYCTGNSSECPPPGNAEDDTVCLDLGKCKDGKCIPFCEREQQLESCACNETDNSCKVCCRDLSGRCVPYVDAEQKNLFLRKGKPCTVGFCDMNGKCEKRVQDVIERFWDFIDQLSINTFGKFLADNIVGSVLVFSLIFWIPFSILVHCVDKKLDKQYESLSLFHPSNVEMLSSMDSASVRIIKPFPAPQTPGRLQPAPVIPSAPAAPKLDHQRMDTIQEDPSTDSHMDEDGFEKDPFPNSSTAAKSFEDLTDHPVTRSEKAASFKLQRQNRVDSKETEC
T3 sequence (P39900 106-470): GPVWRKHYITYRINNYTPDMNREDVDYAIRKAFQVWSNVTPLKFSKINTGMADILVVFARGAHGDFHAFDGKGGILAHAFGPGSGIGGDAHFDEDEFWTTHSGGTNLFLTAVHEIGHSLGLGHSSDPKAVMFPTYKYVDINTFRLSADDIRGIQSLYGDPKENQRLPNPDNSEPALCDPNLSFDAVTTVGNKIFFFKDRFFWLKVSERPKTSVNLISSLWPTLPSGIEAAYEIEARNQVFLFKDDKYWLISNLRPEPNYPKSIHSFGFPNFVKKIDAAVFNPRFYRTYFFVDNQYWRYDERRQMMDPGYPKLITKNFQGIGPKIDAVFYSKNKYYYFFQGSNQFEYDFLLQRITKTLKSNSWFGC

On to `O=C(NCCNS(=O)(=O)c1ccc(Oc2ccccc2)cc1)P(=O)(O)O` [Compound 1, 1-[4-phenoxybenzenesulfonamido]-2-[phosphonoformamido]ethane], for which the IC50 was 15 µM in assay [1]; over 100 µM in assay [2] (read-out: IC50 (μM) on MMP-3); 60 µM in [3]; over 100 µM in assay [4] (read-out: IC50 (μM) on MMP-9); 55 µM in assay [5]; over 100 µM in assay [7] (read-out: IC50 (μM) on MMP-8). Further, in [10] (read-out: IC50 (μM) on TACE), the IC50 turned out to be 6 µM. In addition, the “activity against MMP-3” value in [2] is listed as “reduced or no activity”. Also, in assay [4], the “activity against MMP-9” value is reported as “reduced or no activity”. Further, the inhibition at 50 µM in [6] worked out at 70%. In addition, the “activity against MMP-8” value in assay [7] is “reduced or no activity”. For the same compound, the “inhibition in metastasis formation (number of metastatic foci in the lung)” value in assay [8] is listed as over 80%. Besides, the “Duration of inhibitory effect” value in assay [9] is over 180 min. In assay [10], the “activity against TACE” value was “moderate activity”. Besides, the “period as active inhibitor (time dependent inhibition, FIG. 1)” value in assay [11] is given as “at least 3 hours”.
